Experimental data published in PMC10419279, “Biochemical and Functional Characterization of the Three Zebrafish Transglutaminases 2” (International Journal of Molecular Sciences, 2023).
Square brackets hold non-standard residues; d marks the D form. Peptide text beside a SMILES is read from it. * marks the point of attachment. DON = [N-]=[N+]=CC(=O)CC[C@H](N)C(=O)O; Cbz = O=C(OCc1ccccc1)*

Tests used:
Test in all cases: ELISA, pentylamine-biotin incorporation into coated N,N-dimethylcasein
Type in all cases: biochemical
zTG2like [1] = biological target: T1, zTG2like (Danio rerio, UniProt A3KQ87); conditions: amine co-substrate with N,N-dimethylcasein; 5 mM CaCl2, 10 mM DTT, pH 8.0, 37 °C
T1 construct: gene tgm2l; full-length CDS in pET30a(+), His6-tagged (text: C-terminal His-tag; reverse primer keeps stop codon), E. coli BL21(DE3), Ni-NTA; primer-encoded N-terminus MASYNA, C-terminus AVPEI
T1 sequence (A3KQ87 1-692): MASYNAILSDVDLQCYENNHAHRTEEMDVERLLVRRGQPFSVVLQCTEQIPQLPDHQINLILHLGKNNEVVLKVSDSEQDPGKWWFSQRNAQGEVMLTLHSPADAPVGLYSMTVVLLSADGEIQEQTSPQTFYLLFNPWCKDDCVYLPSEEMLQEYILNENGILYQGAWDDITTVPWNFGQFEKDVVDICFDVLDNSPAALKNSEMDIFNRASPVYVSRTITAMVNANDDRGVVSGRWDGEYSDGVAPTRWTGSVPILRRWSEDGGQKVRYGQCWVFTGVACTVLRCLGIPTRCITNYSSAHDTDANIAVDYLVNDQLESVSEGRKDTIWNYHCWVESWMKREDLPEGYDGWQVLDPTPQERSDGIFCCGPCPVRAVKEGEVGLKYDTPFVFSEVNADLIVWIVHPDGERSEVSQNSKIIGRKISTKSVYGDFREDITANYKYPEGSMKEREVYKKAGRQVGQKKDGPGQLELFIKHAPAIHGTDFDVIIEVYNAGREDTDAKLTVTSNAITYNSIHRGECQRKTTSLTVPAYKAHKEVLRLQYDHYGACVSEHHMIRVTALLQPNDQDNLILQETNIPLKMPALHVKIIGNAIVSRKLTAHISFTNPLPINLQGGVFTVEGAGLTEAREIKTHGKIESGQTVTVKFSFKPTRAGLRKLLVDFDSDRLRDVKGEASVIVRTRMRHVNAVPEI
Description: ELISA, pentylamine-biotin incorporation into coated N,N-dimethylcasein on zTG2like | incorporate pentylamine-biotin into the substrate N,N-dimethylcasein in solution. All three zebrafish TGs2

zTG2b [2] = biological target: T2, zTG2b (Danio rerio, UniProt A0ACM8QA61); conditions: amine co-substrate with N,N-dimethylcasein; 5 mM CaCl2, 10 mM DTT, pH 8.0, 37 °C
T2 construct: gene tgm2b; full-length CDS in pET30a(+), His6-tagged (text: C-terminal His-tag; reverse primer keeps stop codon), E. coli BL21(DE3), Ni-NTA; primer-encoded N-terminus MALDIG, C-terminus VIIGK
T2 sequence (A0ACM8QA61 1-679): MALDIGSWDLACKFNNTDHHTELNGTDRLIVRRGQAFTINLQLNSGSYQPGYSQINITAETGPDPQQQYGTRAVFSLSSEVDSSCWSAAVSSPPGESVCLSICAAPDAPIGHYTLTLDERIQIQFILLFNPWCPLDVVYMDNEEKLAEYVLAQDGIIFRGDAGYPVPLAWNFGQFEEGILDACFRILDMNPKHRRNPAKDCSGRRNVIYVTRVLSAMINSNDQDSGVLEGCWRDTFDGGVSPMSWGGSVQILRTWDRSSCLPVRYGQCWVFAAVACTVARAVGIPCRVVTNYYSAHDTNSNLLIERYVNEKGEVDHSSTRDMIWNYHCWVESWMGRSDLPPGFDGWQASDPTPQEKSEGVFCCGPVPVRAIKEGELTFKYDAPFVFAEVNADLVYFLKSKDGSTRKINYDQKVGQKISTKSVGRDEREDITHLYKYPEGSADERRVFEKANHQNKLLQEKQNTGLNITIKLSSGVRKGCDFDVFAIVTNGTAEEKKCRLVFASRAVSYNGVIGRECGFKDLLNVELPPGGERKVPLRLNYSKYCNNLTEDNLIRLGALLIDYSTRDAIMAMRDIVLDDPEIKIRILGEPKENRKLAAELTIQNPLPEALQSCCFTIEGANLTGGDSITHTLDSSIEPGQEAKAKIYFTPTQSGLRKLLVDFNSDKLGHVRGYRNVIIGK
Description: ELISA, pentylamine-biotin incorporation into coated N,N-dimethylcasein on zTG2b | incorporate pentylamine-biotin into the substrate N,N-dimethylcasein in solution. All three zebrafish TGs2

hTG2 [3] = biological target: T3, hTG2 (Homo sapiens, UniProt P21980); conditions: amine co-substrate with N,N-dimethylcasein; 5 mM CaCl2, 10 mM DTT, pH 8.0, 37 °C
T3 construct: gene TGM2; recombinant hTG2 used as positive control; source and tag of purified protein not detailed; 77 kDa
T3 sequence (P21980 2-687): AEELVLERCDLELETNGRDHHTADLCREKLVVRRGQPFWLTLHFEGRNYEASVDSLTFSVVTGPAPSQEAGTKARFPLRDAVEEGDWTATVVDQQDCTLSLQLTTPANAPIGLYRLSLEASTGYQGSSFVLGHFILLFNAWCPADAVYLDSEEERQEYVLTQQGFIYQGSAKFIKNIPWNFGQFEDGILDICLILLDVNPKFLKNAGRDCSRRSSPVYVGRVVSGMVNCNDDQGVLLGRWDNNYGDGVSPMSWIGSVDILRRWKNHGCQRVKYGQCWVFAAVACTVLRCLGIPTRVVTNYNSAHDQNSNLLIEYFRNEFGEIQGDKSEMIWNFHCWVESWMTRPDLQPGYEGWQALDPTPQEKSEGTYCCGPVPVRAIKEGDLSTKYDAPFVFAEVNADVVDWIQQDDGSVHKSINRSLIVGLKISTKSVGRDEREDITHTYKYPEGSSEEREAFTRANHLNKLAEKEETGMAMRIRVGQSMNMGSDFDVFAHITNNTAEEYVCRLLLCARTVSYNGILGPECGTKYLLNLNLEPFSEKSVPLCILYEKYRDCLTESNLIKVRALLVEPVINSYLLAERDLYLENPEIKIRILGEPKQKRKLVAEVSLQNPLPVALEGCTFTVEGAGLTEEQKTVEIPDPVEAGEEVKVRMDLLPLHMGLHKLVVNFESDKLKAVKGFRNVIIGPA

zTG2a [4] = biological target: T4, zTG2a (Danio rerio, UniProt Q66L63); conditions: amine co-substrate with N,N-dimethylcasein; 5 mM CaCl2, 10 mM DTT, pH 8.0, 37 °C
T4 construct: gene tgm2a; full-length CDS in pET30a(+), His6-tagged (text: C-terminal His-tag; reverse primer keeps stop codon), E. coli BL21(DE3), Ni-NTA; primer-encoded N-terminus MERVVE, C-terminus LVIYE
T4 sequence (Q66L63 1-679): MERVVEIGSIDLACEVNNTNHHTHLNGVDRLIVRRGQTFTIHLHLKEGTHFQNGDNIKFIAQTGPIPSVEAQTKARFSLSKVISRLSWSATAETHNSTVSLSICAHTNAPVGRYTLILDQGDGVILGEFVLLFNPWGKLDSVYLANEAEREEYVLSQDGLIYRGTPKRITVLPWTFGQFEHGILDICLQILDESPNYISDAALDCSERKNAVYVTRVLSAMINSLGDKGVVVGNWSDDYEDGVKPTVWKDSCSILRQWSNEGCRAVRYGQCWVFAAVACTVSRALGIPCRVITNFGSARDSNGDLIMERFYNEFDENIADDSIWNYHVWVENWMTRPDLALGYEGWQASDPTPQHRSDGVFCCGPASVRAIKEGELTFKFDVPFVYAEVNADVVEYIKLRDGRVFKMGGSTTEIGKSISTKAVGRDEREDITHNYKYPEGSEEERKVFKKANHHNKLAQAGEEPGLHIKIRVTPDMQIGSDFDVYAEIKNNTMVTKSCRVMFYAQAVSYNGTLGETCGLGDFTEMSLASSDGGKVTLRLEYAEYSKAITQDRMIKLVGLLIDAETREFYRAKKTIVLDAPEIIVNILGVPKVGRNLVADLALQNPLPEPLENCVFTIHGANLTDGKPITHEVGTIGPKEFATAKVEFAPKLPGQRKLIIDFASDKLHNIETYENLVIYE
Description: ELISA, pentylamine-biotin incorporation into coated N,N-dimethylcasein on zTG2a | incorporate pentylamine-biotin into the substrate N,N-dimethylcasein in solution. All three zebrafish TGs2

zTG2a [5] = biological target: T4, zTG2a; conditions: 50 ng enzyme, 0.2 mM pentylamine-biotin, 5 mM CaCl2, 10 mM DTT, pH 8.0, 37 °C, 1 h; GTP 100 µM (methods) or 100 mM (figure legend)
hTG2 [6] = biological target: T3, hTG2; conditions: 50 ng enzyme, 0.2 mM pentylamine-biotin, 5 mM CaCl2, 10 mM DTT, pH 8.0, 37 °C, 1 h; GTP 100 µM (methods) or 100 mM (figure legend)
zTG2a [7] = biological target: T4, zTG2a
zTG2b [8] = biological target: T2, zTG2b; conditions: 50 ng enzyme, 0.2 mM pentylamine-biotin, 5 mM CaCl2, 10 mM DTT, pH 8.0, 37 °C, 1 h; methods print inhibitor doses as mM
zTG2like [9] = biological target: T1, zTG2like

## NCCCCCNC(=O)CCCC[C@@H]1SC[C@@H]2NC(=O)N[C@@H]21 [pentylamine-biotin]
zTG2like [1]
  ELISA, pentylamine-biotin incorporation into coated N,N-dimethylcasein: incorporate pentylamine-biotin into the substrate N,N-dimethylcasein in solution. All three zebrafish TGs2
zTG2b [2]
  ELISA, pentylamine-biotin incorporation into coated N,N-dimethylcasein: incorporate pentylamine-biotin into the substrate N,N-dimethylcasein in solution. All three zebrafish TGs2
hTG2 [3]
  ELISA, pentylamine-biotin incorporation into coated N,N-dimethylcasein: as well as the human enzyme were able to mediate the transamidation reaction
zTG2a [4]
  ELISA, pentylamine-biotin incorporation into coated N,N-dimethylcasein: incorporate pentylamine-biotin into the substrate N,N-dimethylcasein in solution. All three zebrafish TGs2

## Nc1nc2c(ncn2[C@@H]2O[C@H](COP(=O)(O)OP(=O)(O)OP(=O)(O)O)[C@@H](O)[C@H]2O)c(=O)[nH]1 [GTP]
zTG2a [5]
  % inhibition: zTG2a is the only zebrafish TG2 whose activity is affected by the presence of GTP
hTG2 [6]
  % inhibition: the inhibitory effect of GTP was only one third of that observed for the human enzyme

## COC(=O)[C@H](CC(C)C)NC(=O)[C@@H]1CCCN1C(=O)[C@@H](NC(=O)[C@H](CCC(=O)C=[N+]=[N-])NC(=O)OCc1ccccc1)C(C)C [ZDON] (Cbz-[DON]VPL-OMe)
zTG2a [7]
  inhibition at 25 µM: ~50%
zTG2b [8]
  % inhibition at 25 μM: ~ 50%
zTG2like [9]
  inhibition at 25 µM: ~50%
